Measured values from patent publication US20210386068A1, “COMPOSITIONS COMPRISING PYRIDINE CARBOXYLATE HERBICIDES AND VERY LONG CHAIN FATTY ACID (VLCFA) SYNTHESIS INHIBITOR HERBICIDES” (priority 2018, published 2021).

What was measured:
Type in all cases: in vivo
[1] = test system: Triticum aestivum (spring wheat, TRZAS); assay: Greenhouse postemergence crop phytotoxicity, visual injury 20-22 d after spraying, spring wheat (TRZAS); conditions: TRZAS
Excerpt: (§1) Seeds of the desired test plant species were planted in a 90:10% v/v (volume/volume) mixture of PRO-MIX® BX (Premier Tech Horticulture, Quakertown, Pa., USA) and PROFILE® GREENS GRADE™ (Profile Products LLC, Buffalo Grove, Ill., USA) planting mixture, which typically has a pH of 5.2 to 6.2 and an organic matter content of at least 50 percent, in plastic pots with a surface area of 103.2 square centimeters (cm^2). In some aspects, to ensure good germination and healthy plants, a fungicide treatment and/or other chemical or physical treatment was applied. The plants were grown for 7-36 days (d) in a greenhouse with an approximate 14-hour (h) photoperiod which was maintained at about 23° C. during the day and 22° C. during the night. Nutrients and water were added on a regular basis and supplemental lighting was provided with overhead metal halide 1000-Watt lamps as necessary. The plants were employed for testing when they reached the second or third true leaf stage.
(§2) Emulsifiable concentrates of each of each pyridine carboxylate herbicide (Compound A or Compound B) were prepared at 100 grams acid equivalent per liter (g ae/L). The emulsifiable concentrates also included a safener, cloquintocet-mexyl, at 120 grams active ingredient per liter (g ai/L). An aliquot of each emulsifiable concentrate was placed in a 25 mL glass vial and diluted with an aqueous mixture of 1.25% (v/v) ACTIROB® B esterified rapeseed oil (Bayer Crop Science, Research Triangle Park, N.C., USA) or MSO® Concentrate with LECI-TECH® methylated soybean oil (Loveland Products, Loveland, Colo., USA) to obtain concentrated stock solutions at the highest application rate for each herbicide, based upon a 12 milliliter (mL) application volume at a rate of 187 liters per hectare (L/ha). The concentrated stock solutions were further diluted with an aqueous mixture of 1.25% v/v ACTIROB® B or MSO® Concentrate with LECI-TECH® to obtain stock solutions at reduced application rates for each herbicide. Spray solutions of the herbicide combinations (Compound A or Compound B plus VLCFA synthesis inhibitor herbicide) were prepared by adding weighed amounts or aliquots of the VLCFA synthesis inhibitor herbicide to the stock solutions of Compound A or Compound B to form 12-mL spray solutions in two-way combinations.
(§3) The spray solutions were applied to the plant material with an overhead Mandel track sprayer equipped with 8002E nozzles calibrated to deliver 187 L/ha over an application area of 0.503 square meters (m^2) at a spray height of 18 inches ([…] (cm)) above the average plant canopy. Control plants were sprayed in the same manner with the solvent blank. All pyridine carboxylate herbicide (component a) application rates are given as “g ae/ha” and all VLCFA synthesis inhibitor herbicide (component b) application rates are given as “g ai/ha.”
(§4) The treated plants and control plants were placed in a greenhouse as described above and watered by sub-irrigation to prevent wash-off of the test compounds. After 20-22 d, the condition of the test plants as compared with that of the control plants was determined visually and scored on a scale of 0 to 100 percent where 0 corresponds to no injury and 100 corresponds to complete kill.

[2] = test system: Cirsium arvense (Canadian thistle, CIRAR); assay: Greenhouse postemergence herbicidal effect, visual injury 20-22 d after spraying, Canadian thistle (CIRAR); conditions: CIRAR
Excerpt: as §1, §2, §3, §4

[3] = test system: Amaranthus retroflexus (pigweed, AMARE); assay: Greenhouse postemergence herbicidal effect, visual injury 20-22 d after spraying, pigweed (AMARE)
Excerpt: as §1, §2, §3, §4

[4] = test system: Polygonum convolvulus (wild buckwheat, POLCO); assay: Greenhouse postemergence herbicidal effect, visual injury 20-22 d after spraying, wild buckwheat (POLCO); conditions: POLCO
Excerpt: as §1, §2, §3, §4

[5] = test system: Sinapis arvensis (wild mustard, SINAR); assay: Greenhouse postemergence herbicidal effect, visual injury 20-22 d after spraying, wild mustard (SINAR); conditions: SINAR
Excerpt: as §1, §2, §3, §4

[6] = test system: Matricaria chamomilla (wild chamomile, MATCH); assay: Greenhouse postemergence herbicidal effect, visual injury 20-22 d after spraying, wild chamomile (MATCH); conditions: MATCH
Excerpt: as §1, §2, §3, §4

[7] = test system: Brassica napus (winter rape, BRSNW); assay: Greenhouse postemergence herbicidal effect, visual injury 20-22 d after spraying, winter rape (BRSNW); conditions: BRSNW
Excerpt: as §1, §2, §3, §4

[8] = test system: Hordeum vulgare (spring barley, HORVS); assay: Greenhouse postemergence crop phytotoxicity, visual injury 20-22 d after spraying, spring barley (HORVS); conditions: HORVS
Excerpt: as §1, §2, §3, §4

[9] = test system: Kochia scoparia (kochia, KCHSC); assay: Greenhouse postemergence herbicidal effect, visual injury 20-22 d after spraying, kochia (KCHSC); conditions: KCHSC
Excerpt: as §1, §2, §3, §4

[10] = test system: Chenopodium album L. (common lambsquarters, CHEAL); assay: Greenhouse postemergence herbicidal effect, visual injury 20-22 d after spraying, common lambsquarters (CHEAL)
Excerpt: as §1, §2, §3, §4

[11] = test system: Salsola kali (Russian thistle, SASKR); assay: Greenhouse postemergence herbicidal effect, visual injury 20-22 d after spraying, Russian thistle (SASKR); conditions: SASKR
Excerpt: as §1, §2, §3, §4

[12] = test system: Brassica napus (spring rape, BRSNN); assay: Greenhouse postemergence herbicidal effect, visual injury 20-22 d after spraying, spring rape (BRSNN)
Excerpt: as §1, §2, §3, §4

## CCN(C(=O)n1nnn(-c2ccccc2Cl)c1=O)C1CCCCC1 [Fentrazamide, 4-(2-chlorophenyl)-N-cyclohexyl-N-ethyl-4,5-dihydro-5-oxo-1H-tetrazole-1-carboxamide]
[1]; Fentrazamide 200 g/ha alone
  % visual injury Obs: 0%
[2]; Fentrazamide 200 g/ha alone
  % visual injury Obs: 0%
[3]; Fentrazamide 200 g/ha alone
  % visual injury Obs: 0%
[4]; Fentrazamide 200 g/ha alone
  % visual injury Obs: 5%
[5]; Fentrazamide 200 g/ha alone
  % visual injury Obs: 0%
[6]; Fentrazamide 200 g/ha alone
  % visual injury Obs: 0%
[7]; Fentrazamide 200 g/ha alone
  % visual injury Obs: 0%
[8]; Fentrazamide 200 g/ha alone
  % visual injury Obs: 0%
[9]; Fentrazamide 200 g/ha alone
  % visual injury Obs: 0%
[10]; Fentrazamide 200 g/ha alone
  % visual injury Obs: 0%
[11]; Fentrazamide 200 g/ha alone
  % visual injury Obs: 0%

## Cn1nc(C(F)(F)F)c(CS(=O)(=O)C2=NOC(C)(C)C2)c1OC(F)F [Pyroxasulfone, 3-[[[5-(difluoromethoxy)-1-methyl-3-(trifluoromethyl)-1H-pyrazol-4-yl]methyl]sulfonyl]-4,5-dihydro-5,5-dimethylisoxazole]
[2]; Pyroxasulfone 100 g/ha alone
  % visual injury: 0%
[3]; Pyroxasulfone 100 g/ha alone
  % visual injury: 5%
[4]; Pyroxasulfone 100 g/ha alone
  % visual injury: 0%
[5]; Pyroxasulfone 100 g/ha alone
  % visual injury: 28%
[6]; Pyroxasulfone 100 g/ha alone
  % visual injury: 0%
[7]; Pyroxasulfone 100 g/ha alone
  % visual injury: 5%
[9]; Pyroxasulfone 100 g/ha alone
  % visual injury: 0%
[10]; Pyroxasulfone 100 g/ha alone
  % visual injury: 0%
[11]; Pyroxasulfone 100 g/ha alone
  % visual injury: 10%

## CCOCCN(C(=O)CCl)C(=C(C)C)c1ccccc1 [Pethoxamid, 2-chloro-N-(2-ethoxyethyl)-N-(2-methyl-1-phenyl-1-propen-1-yl)acetamide]
[1]; Pethoxamid 600 g/ha alone
  % visual injury Obs: 0%
[2]; Pethoxamid 600 g/ha alone
  % visual injury Obs: 0%
[3]; Pethoxamid 600 g/ha alone
  % visual injury Obs: 0%
[4]; Pethoxamid 600 g/ha alone
  % visual injury Obs: 0%
[5]; Pethoxamid 600 g/ha alone
  % visual injury Obs: 0%
[6]; Pethoxamid 600 g/ha alone
  % visual injury Obs: 0%
[7]; Pethoxamid 600 g/ha alone
  % visual injury Obs: 0%
[8]; Pethoxamid 600 g/ha alone
  % visual injury Obs: 0%
[9]; Pethoxamid 600 g/ha alone
  % visual injury Obs: 0%
[10]; Pethoxamid 600 g/ha alone
  % visual injury Obs: 0%
[11]; Pethoxamid 600 g/ha alone
  % visual injury Obs: 0%

## COC[C@H](C)N(C(=O)CCl)c1c(C)csc1C [Dimethenamid-P, (S)-2-chloro-N-(2,4-dimethyl-3-thienyl)-N-(2-methoxy-1-methyl-ethyl)acetamide]
[2]; Dimethenamid-P 560 g/ha alone
  % visual injury Obs: 0%
[3]; Dimethenamid-P 560 g/ha alone
  % visual injury Obs: 10%
[4]; Dimethenamid-P 560 g/ha alone
  % visual injury Obs: 0%
[5]; Dimethenamid-P 560 g/ha alone
  % visual injury Obs: 0%
[6]; Dimethenamid-P 560 g/ha alone
  % visual injury Obs: 0%
[12]; Dimethenamid-P 560 g/ha alone
  % visual injury Obs: 0%
[9]; Dimethenamid-P 560 g/ha alone
  % visual injury Obs: 0%
[10]; Dimethenamid-P 560 g/ha alone
  % visual injury Obs: 0%
[11]; Dimethenamid-P 560 g/ha alone
  % visual injury Obs: 0%

## S-Metolachlor
[1]; S-Metolachlor 500 g/ha alone
  % visual injury Obs: 0%
[2]; S-Metolachlor 500 g/ha alone
  % visual injury Obs: 0%
[3]; S-Metolachlor 500 g/ha alone
  % visual injury Obs: 0%
[4]; S-Metolachlor 500 g/ha alone
  % visual injury Obs: 0%
[5]; S-Metolachlor 500 g/ha alone
  % visual injury Obs: 0%
[6]; S-Metolachlor 500 g/ha alone
  % visual injury Obs: 0%
[7]; S-Metolachlor 500 g/ha alone
  % visual injury Obs: 0%
[8]; S-Metolachlor 500 g/ha alone
  % visual injury Obs: 0%
[9]; S-Metolachlor 500 g/ha alone
  % visual injury Obs: 0%
[10]; S-Metolachlor 500 g/ha alone
  % visual injury Obs: 0%
[11]; S-Metolachlor 500 g/ha alone
  % visual injury Obs: 0%

## CCCCOCN(C(=O)CCl)c1c(CC)cccc1CC [Butachlor, N-(butoxymethyl)-2-chloro-N-(2,6-diethylphenyl) acetamide]
[2]; Butachlor 450 g/ha alone
  % visual injury Obs: 0%
[3]; Butachlor 450 g/ha alone
  % visual injury Obs: 0%
[4]; Butachlor 450 g/ha alone
  % visual injury Obs: 0%
[5]; Butachlor 450 g/ha alone
  % visual injury Obs: 0%
[6]; Butachlor 450 g/ha alone
  % visual injury Obs: 5%
[7]; Butachlor 450 g/ha alone
  % visual injury Obs: 0%
[9]; Butachlor 450 g/ha alone
  % visual injury Obs: 0%
[10]; Butachlor 450 g/ha alone
  % visual injury Obs: 0%
[11]; Butachlor 450 g/ha alone
  % visual injury Obs: 0%

## CCN(CC)C(=O)n1cnc(S(=O)(=O)c2c(C)cc(C)cc2C)n1 [Cafenstrole, N,N-diethyl-3-[(2,4,6-trimethylphenyl)sulfonyl]-1H-1,2,4-triazole-1-carboxamide]
[1]; Cafenstrole 52.5 g/ha alone
  % visual injury Obs: 0%
[4]; Cafenstrole 52.5 g/ha alone
  % visual injury Obs: 5%
[5]; Cafenstrole 52.5 g/ha alone
  % visual injury Obs: 0%
[6]; Cafenstrole 52.5 g/ha alone
  % visual injury Obs: 5%
[12]; Cafenstrole 52.5 g/ha alone
  % visual injury Obs: 5%
[8]; Cafenstrole 52.5 g/ha alone
  % visual injury Obs: 0%
[9]; Cafenstrole 52.5 g/ha alone
  % visual injury Obs: 5%
[10]; Cafenstrole 52.5 g/ha alone
  % visual injury Obs: 0%
[11]; Cafenstrole 52.5 g/ha alone
  % visual injury Obs: 0%

## CN(C(=O)COc1nc2ccccc2s1)c1ccccc1 [Mefenacet, 2-(2-benzothiazolyloxy)-N-methyl-N-phenylacetamide]
[4]; Mefenacet 50 g/ha alone
  % visual injury Obs: 0%
[5]; Mefenacet 50 g/ha alone
  % visual injury Obs: 0%
[6]; Mefenacet 50 g/ha alone
  % visual injury Obs: 0%
[12]; Mefenacet 50 g/ha alone
  % visual injury Obs: 5%
[9]; Mefenacet 50 g/ha alone
  % visual injury Obs: 0%
[10]; Mefenacet 50 g/ha alone
  % visual injury Obs: 0%
[11]; Mefenacet 50 g/ha alone
  % visual injury Obs: 0%
